Reference: paper PMC13462928 (Nature Communications, 2026)
“Also recorded” adds a separate entry of the source.

What was measured:
HEK293 cells = assay: Untargeted global proteomics of HEK293 cells; format: cell-based, human; conditions: 100 nM, 24 h; for total proteome analysis, downregulated proteins: 7135 quantified proteins
Experimental: (§1) Proteomics samples were digested with trypsin using STrap columns following the manufacturer’s protocol (C02-micro, ProtiFi). […] Then, the cell pellets were collected and lysed in 5% SDS containing 1 μL/mL benzonase (E1014, Millipore) and subsequently short sonication to shear genomic DNA (1×2 s pulse, 20% amplitude, microtip, Sonics Vibra Cell). 50 μg protein from the total cell lysate or 80% of the elution fraction of the chemical pulldown were first reduced by 20 mM dithiothreitol (M02712, Fluorochem), and alkylated by 40 mM iodoacetamide (I1149, Sigma). Phosphoric acid and S-Trap protein binding buffer were added to the sample lysates. Then, the SDS lysate/S-Trap buffer were loaded into a S-Trap column (C02-micro-80, ProtiFi). 1 μg of trypsin (V5111, Promega) was used to digest each sample at 37 °C for 20 h. The samples were then eluted and dried by vacuum centrifugation. Peptide pellets were resuspended in mass spectrometry-grade water with 2% acetonitrile (85188, Thermo Scientific) and 0.1% trifluoroacetic acid (85183, Thermo Scientific). The samples were injected into Orbitrap Fusion Lumos Tribrid Mass Spectrometer (Thermo Scientific). Sample acquisition was performed as previously described.
Raw data were searched against the human database (UP000005640, downloaded 08/21) using DIA-NN (v.1.8.1)[48] by enabling FASTA digest for library-free search and Deep learning-based spectra, RTs, and IMs prediction. Trypsin/P was selected for the in silico digestion of the provided FASTA file, allowing up to 2 missed cleavages. Fixed modifications included N-terminal methionine excision and cysteine carbamidomethylation. Variable modifications were methionine oxidation and N-terminal acetylation, with a maximum of one modification per precursor. Precursor FDR was kept at 1% and MBR enabled. The protein groups matrix was further analysed using Perseus (2.0.9.0)[49] or R studio (4.3.2). Potential contaminants were filtered against the top 300 most common Homo sapiens contaminants reported in CRAPome[50]. Proteins were removed if detected less than 70% across all runs. After column-wise normalisation by median subtraction, missing values were imputed by random numbers from a normal distribution (1.8 standard deviation, downshift width 0.3). Volcano plots were generated by calculating fold change and -log10(p-value) from an unpaired two-sided Student’s t-test.

HAP1 cells [1] = assay: Titration of NUDT5 degraders and controls against fixed 6-TG (2 µg/mL) in HAP1 cells, cell viability; format: cell-based, human; conditions: for concentration of maximal rescue of cell viability / rescue of 6-TG-induced toxicity: HAP1, 2 µg/mL 6-TG, 72 h
Experimental: (§2) Cells were counted and adjusted to a density of 25,000 cells/mL in culture medium. […] Plates were sealed with breathable film and incubated at 37 °C with 5% CO₂ for 72 hours. Cell viability was assessed using the CellTiter-Glo Luminescent Cell Viability Assay, following the manufacturer’s protocol (Promega). Luminescence was measured using a PHERAstar FS or FSX plate reader, and data were analyzed using GraphPad Prism software (versions 9 or 10). Results were normalized to the vehicle control (DMSO).

[2] = target: NUDT5 and the respective E3 ligase (Homo sapiens, UniProt P40337+Q9UKK9); assay: NanoBRET ternary complex formation assay NUDT5 and the respective E3 ligase (VHL or CRBN) in HEK293 cells; format: cell-based; conditions: Supplementary Table 2; for Ternary complex formation below 1 µM (4 h): HEK293, 4 h; for Ternary complex formation below 1 µM (20 h): HEK293, 20 h
NUDT5 and the respective E3 ligase, sequence (P40337 whole entry, one chain of several): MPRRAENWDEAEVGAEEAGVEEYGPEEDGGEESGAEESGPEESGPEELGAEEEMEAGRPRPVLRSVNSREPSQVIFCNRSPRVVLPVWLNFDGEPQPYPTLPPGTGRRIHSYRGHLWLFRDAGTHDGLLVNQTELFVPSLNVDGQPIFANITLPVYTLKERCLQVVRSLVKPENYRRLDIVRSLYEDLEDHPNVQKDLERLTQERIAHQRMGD
Experimental: (§3) NanoBRET ternary complex assays were performed following the manufacturer’s instructions (Promega). […] After 4 h or 20 h of incubation, a mix of substrate in assay medium was added to each well. Donor and acceptor signals were measured in a PHERAstar FSX or FS plate reader and analyzed by GraphPad Prism (v.9 or v.10). The acceptor/donor ratio was calculated, the no ligand background signal was subtracted, and multiplied by 1000 to yield mBRET units. Data were then normalized to DMSO.

NUDT5 [3] = target: T1, NUDT5 (Homo sapiens, UniProt Q96SW2+Q9UKK9); assay: Western blot NUDT5 degradation in HEK293 CRBN KO cells; format: cell-based; set-up: endogenous in cells; host or cells: HEK293 (CRBN KO); conditions: 100 nM, 20 h
Experimental: (§4) Pellets were lysed on ice using RIPA buffer (25 mM Tris (pH 7.5), 150 mM NaCl, 1% Igepal, 1% SDS, 0.1% SDC, 1x protease inhibitor (Roche, cOmplete mini, 11836170001), 1x phosphatase (Thermo Scientific, Halt, 78429), 0.1% benzonase (Merck, E1014-5KU)), incubated for 15 min and then centrifuged for 20 min at 4 °C at maximum speed in a table-top centrifuge. […] Membranes were blocked with 6% milk in PBS-T for 1 h at RT, washed, and then incubated with primary antibody diluted in PBS-T supplemented with 0.1% NaN3 overnight at 4 °C. Membranes were incubated with fluorophore-conjugated secondary antibodies, Alexa Fluor 680 anti-rabbit IgG (Life Technologies, A21109), Alexa Fluor 750 anti-mouse IgG (Life Technologies, A21037) diluted 1:5000 in 2% milk PBS-T, washed and imaged with an Odyssey imager (Licor).

NUDT5 [4] = target: T1, NUDT5; assay: Western blot NUDT5 degradation in HEK293 cells; format: cell-based; conditions: for Dmax: 20 h, read-out: apparent Dmax of NUDT5 degradation
Experimental: as §4

NUDT5 [5] = target: T2, NUDT5 (Homo sapiens, UniProt Q9UKK9); assay: Western blot NUDT5 degradation in HEK293 cells; format: cell-based; conditions: 20 h, Western blot, read-out: DC50 (half-maximal degradation concentration) of NUDT5
Experimental: as §4

HAP1 cells [6] = assay: Metabolomics with isotopically labeled formate/adenosine in HAP1 cells; format: cell-based, human; conditions: HAP1, 100 nM, 13C-D formate 1 mM, 15N adenosine 100 µM, 24 h
Experimental: Experiments were performed in duplicates. Approximately 1.5 × 10^6 HAP1 wt and NUDT5 KO cells were seeded in IMDM (full) prior to treatment with isotopically labeled metabolites. […] After 24 h, plates were washed with PBS and replaced with IMDM containing dialysed FBS (Gibco). Cells were treated with 1 mM of isotopically labeled sodium formate (Eurisotop, CDLM-6203-0.25) or with 1 mM of isotopically labeled sodium and 100 µM isotopically labeled adenosine (Silantes, 125303601). After 24 h, 5 × 10^6 cells for each replicate was harvested, washed with PBS, immediately snap frozen and stored at −80 °C. Cell pellets were lysed with 150 µL ice-cold 80:20 MeOH:H2O, vortexed and sonicated for 5 minutes on ice. The extract was centrifuged for 10 minutes at 10,000 × g at 4 °C and the supernatant was collected in a glass insert vial. This procedure was repeated and the two supernatants were combined. Solvent was evaporated in a vacuum concentrator. Metabolites were reconstituted in 50 µL pure MeOH. A Vanquish UHPLC system (Thermo Scientific) coupled with an Orbitrap Q Exactive (Thermo Scientific) mass spectrometer was used for the LC-MS analysis. […] Quantification of target metabolites was performed by manually integrating the area under the curve, and data were plotted using GraphPad Prism v.10.

HAP1 cells [7] = assay: Untargeted global proteomics of HAP1 cells; format: cell-based, human; conditions: 100 nM, 6 h and 24 h
Experimental: as §1, with “Peptide pellets were resuspended in mass spectrometry-grade water with 2% acetonitrile (85188, Thermo Scientific) and 0.1% trifluoroacetic acid (85183, Thermo Scientific). The samples were injected into Orbitrap Fusion Lumos Tribrid Mass Spectrometer (Thermo Scientific). Sample acquisition was performed as previously described.” left out
Raw data were searched against the human database (UP000005640, downloaded 08/21) using DIA-NN (v.1.8.1)[48] by enabling FASTA digest for library-free search and Deep learning-based spectra, RTs, and IMs prediction. […] The protein groups matrix was further analysed using Perseus (2.0.9.0)[49] or R studio (4.3.2). […] Proteins were removed if detected less than 70% across all runs. […]

NUDT5 [8] = target: T2, NUDT5; assay: NanoBRET NUDT5 target engagement (TE) assay in HEK293 cells; format: cell-based; set-up: expressed in transfected cells; host or cells: HEK293; conditions: for EC50: HEK293 cells, Supplementary Fig. 6B, read-out: NUDT5 NanoBRET target engagement EC50
NUDT5 and CRBN = target: T3, NUDT5 and CRBN (Homo sapiens, UniProt Q96SW2+Q9UKK9); assay: NanoBRET ternary complex formation assay NanoLuc-NUDT5 / HaloTag-CRBN in HEK293 cells; format: cell-based; conditions: intact HEK293 cells
T3 construct: expressed in transfected cells; host or cells: HEK293
Experimental: as §3

NUDT5 [9] = target: T1, NUDT5; assay: Western blot NUDT5 degradation in A549 cells; format: cell-based; set-up: endogenous in cells; host or cells: HAP1, A549, MCF7; conditions: A549, MCF7 and HAP1, 100 nM, 20 h
Experimental: as §4

ZFP91 = target: T4, ZFP91 (Homo sapiens, UniProt Q96JP5); assay: Western blot of ZFP91 levels in HEK293 and HAP1 cells; format: cell-based; conditions: 100 nM, 24 h
T4 construct: endogenous in cells; host or cells: HEK293 and HAP1
Experimental: as §4

NUDT5 [10] = target: T1, NUDT5; assay: Western blot NUDT5 degradation in HAP1 cells; format: cell-based; set-up: endogenous in cells; host or cells: HAP1
Experimental: as §4

NUDT5 [11] = target: T2, NUDT5; assay: Western blot NUDT5 degradation in HAP1 cells; format: cell-based; set-up: endogenous in cells; host or cells: HAP1; conditions: HAP1 cells, Western blot; read-out: DC50 (half-maximal degradation concentration) of NUDT5
Experimental: as §4

HAP1 cells [12] = assay: Cell viability (CellTiter-Glo) and 6-TG assay in HAP1 WT cells; format: cell-based, human
Experimental: (§5) HEK293, MCF7, A549 were cultured in DMEM + 10% FBS, HAP1 and HL-60 were cultured in IMDM + 10% FBS. All cell lines were maintained at 37 °C and 5% CO2.
as §2

HL-60 cells = assay: Cell viability (CellTiter-Glo) 6-TG assay in HL-60 cells; format: cell-based, human
Experimental: as §5, §2

HAP1 NUDT5 KO cells = assay: Cell viability (CellTiter-Glo) 6-TG assay in HAP1 NUDT5 KO cells; format: cell-based, human; conditions: Fig. 1A
Experimental: as §5, §2

HAP1 cell lines = assay: TH1760/6-TG cell viability assay in HAP1 cell lines; format: cell-based, human
Experimental: After 72 h incubation, cell viability was measured using the CellTiter-Glo assay (Promega). Signals were normalized to the control condition.

| Ternary complex formation below 1 µM (4 h) [2] | Ternary complex formation below 1 µM (20 h) [2] | Dmax (NUDT5 [4]; Western blot) | DC50 (NUDT5 [5]) | EC50 (NUDT5 [8]) | Structure (SMILES) | effect on ZFP91 in global proteomics (HEK293 cells) | total proteome analysis, downregulated proteins (HEK293 cells) | concentration of maximal rescue of cell viability (HAP1 cells [1]) | NUDT5 degradation in CRBN knockout cells (NUDT5 [3]) | rescue of 6-TG-induced toxicity (HAP1 cells [1]) | also measured |
| --- | --- | --- | --- | --- | --- | --- | --- | --- | --- | --- | --- |
| Yes | Yes | 71% | 12 nM |  | Cn1c(=O)c2c(nc(N3CCN(C(=O)CCOCCOCCOCCNc4cccc5c4C(=O)N(C4CCC(=O)NC4=O)C5=O)CC3)n2Cc2nnc(-c3ccc(Cl)c(Cl)c3)o2)n(C)c1=O (stereo not drawn) [ASM127] | slight effect on the zinc finger protein ZFP91 | NUDT5 as the most significantly downregulated protein | 50 to 100 nM | CRBN knockout (KO) prevents PROTAC-mediated degradation of NUDT5 |  |  |
|  |  |  |  | 3 nM | Cn1c(=O)c2c(nc(N3CCNCC3)n2Cc2nnc(-c3ccc(Cl)c(Cl)c3)o2)n(C)c1=O [TH5427, reference compound] |  |  |  |  | failed to rescue cell viability; also recorded: no signiﬁcant eﬀect | ability to desensitize cells to 6-TG treatment (phenocopy NUDT5 KO) (HAP1 cells [12]): neither inhibitor was able to phenocopy the NUDT5 KO; ability to desensitize cells to 6-TG treatment (phenocopy NUDT5 KO) (HL-60 cells): neither inhibitor was able to phenocopy the NUDT5 KO |

The remaining lines, values behind:

| Structure (SMILES) | Ternary complex formation below 1 µM (4 h) [2] | Ternary complex formation below 1 µM (20 h) [2] | Dmax (NUDT5 [4]; Western blot) | DC50 (NUDT5 [5]) | EC50 (NUDT5 [8]) | effect on ZFP91 in global proteomics (HEK293 cells) | total proteome analysis, downregulated proteins (HEK293 cells) | concentration of maximal rescue of cell viability (HAP1 cells [1]) | NUDT5 degradation in CRBN knockout cells (NUDT5 [3]) | rescue of 6-TG-induced toxicity (HAP1 cells [1]) | also measured |
| --- | --- | --- | --- | --- | --- | --- | --- | --- | --- | --- | --- |
| Cn1c(=O)c2c(nc(N3CCN(C(=O)N4CCC(CN5CCN(c6ccc7c(c6)C(=O)N(C6CCC(=O)NC6=O)C7=O)CC5)CC4)CC3)n2Cc2nnc(-c3ccc(Cl)c(Cl)c3)o2)n(C)c1=O (stereo not drawn) [dNUDT5] |  |  |  | 0.5 nM | 37 nM |  |  | 50 to 100 nM |  | most efficient compound in abrogating 6-TG-induced cell death | de novo derived IMP (HAP1 cells [6]): apparent increase in de novo derived IMP; global proteome analysis, downregulated proteins (HAP1 cells [7]): NUDT5 was the only significantly downregulated protein; NUDT5 engagement in live cells (NUDT5 [8]; NanoBRET): engaged their cognate target NUDT5 in live cells; ternary complex formation between NUDT5 and CRBN in cells (NUDT5 and CRBN): only dNUDT5 induced proficient ternary complex formation; boost of cancer cell viability in presence of 6-TG compared to TH5427 and DMSO control (HAP1 cells [1]; peer review file): more than 8 fold; NUDT5 downregulation across a panel of cell lines (NUDT5 [9]): robust and consistent NUDT5 downregulation; ZFP91 levels (ZFP91): ZFP91 levels remained unchanged; also recorded: does not affect ZFP91 levels; time course of NUDT5 degradation (NUDT5 [10]; 100 nM, up to 72 h): sustained degradation by dNUDT5 over a time course of 72 h; NUDT5 degradation (NUDT5 [10]; HAP1 cells, Western blot, Fig. 3B): induced robust degradation of endogenous NUDT5 protein; DC50 (NUDT5 [11]): 0.3 nM; mechanism of degradation (rescue by neddylation, proteasome, NUDT5 inhibitors and CRBN KO) (NUDT5 [4]): UPS-dependent; NUDT5 degradation (NUDT5 [4]; 100 nM, 6 h, Western blot, Supplementary Fig. 6A): induces degradation of NUDT5 |
| Nc1nc2nc[nH]c2c(=S)[nH]1 [Compound 6-TG, 6-Thioguanine] |  |  |  |  |  |  |  |  |  |  | increase in 6-TG IC50, NUDT5 KO versus NUDT5 WT (HAP1 NUDT5 KO cells): four-fold increase; difference in 6-TG sensitivity, NUDT5 KO versus WT (HAP1 cell lines; HAP1, fixed TH1760 50 µM, 72 h, Fig. 4D): 2.8 fold; IC50 (HAP1 cell lines; Homo sapiens, HAP1 WT cells, approximately): ~1000 nM |
| Cn1c(=O)c2c(nc(N3CCN(C(=O)CCOCCOCCOCCOCCNc4cccc5c4C(=O)N(C4CCC(=O)NC4=O)C5=O)CC3)n2Cc2nnc(-c3ccc(Cl)c(Cl)c3)o2)n(C)c1=O (stereo not drawn) [ASM130] | Yes | Yes | 75% | 7 nM |  | slight effect on the zinc finger protein ZFP91 | NUDT5 as the most significantly downregulated protein | 50 to 100 nM | CRBN knockout (KO) prevents PROTAC-mediated degradation of NUDT5 |  |  |
